Measured values as given in patent US9586880B2, “Small molecule inhibitors of necroptosis” (President and Fellows of Harvard College, priority 2008, dated 2017).

Key:
[1] = test system: FADD-deficient variant of human Jurkat T cells; assay: TNF-α induced necroptosis inhibition, ATP-based viability assessment; assay type: cell-based; details: 10 ng/mL human TNF-α, 24 hours, CellTiter-Glo viability; for EC50: Jurkat
Description: (§1) Evaluation of necroptosis inhibitory activity was performed using a FADD-deficient variant of human Jurkat T cells or with L929 cells treated with TNF-α as previously described (Degterev et al., Nat. Chem. Biol. 1:112 (2005) and Jagtap et al., J. Med. Chem. 50: 1886 (2007)). Utilizing these conditions the cells efficiently underwent necroptosis. For EC50 value determinations, cells were treated with 10 ng/mL of human TNF-α in the presence of increasing concentration of test compounds for 24 hours followed by ATP-based viability assessment.
(§2) ATP-based viability assessment: Briefly, necroptosis activity was performed using a FADD-deficient variant of human Jurkat T cells or L929 cells treated with TNF-α. For EC50 value determinations, cells (500,000 cells/mL, 100 μL per well in a 96-well plate) were treated with 10 ng/mL of human TNF-α in the presence of increasing concentration of test compounds for 24 hours at 37° C. in a humidified incubator with 5% CO2 followed by ATP-based viability assessment. Stock solutions (30 mM) in DMSO were initially prepared and then diluted with DMSO to give testing solutions, which were added to each test well. The final DMSO concentration was 0.5%. Eleven compound test concentrations (0.030-100 μM) were used. Each concentration was done in duplicate.
(§3) Cell viability assessments were performed using a commercial luminescent ATP-based assay kit (CellTiter-Glo, Promega, Madison, Wis.) according to the manufacturer's instructions. Briefly, 40 μL of the cell lysis/ATP detection reagent was added to each well. Plates were incubated on a rocking platform for 10 minutes at room temperature and luminescence was measured using a Wallac Victor 3 plate-reader (Perkin Elmer, Wellesley, Mass.). Cell viability was expressed as a ratio of the signal in the well treated with TNF-α and compound to the signal in the well treated with compound alone. This was done to account for nonspecific toxicity, which in most cases was <10%. EC50 values were calculated using nonlinear regression analysis of sigmoid dose-response (variable slope) curves from plots of log [I] verses viability values.

L929 cells = assay: as above; assay type: cell-based; details: 10 ng/mL human TNF-α, 24 hours, CellTiter-Glo viability; for EC50: Mus musculus, L929
Description: as §1, §2, §3

In the case of COc1cc(C2CC(=O)NC(SCC(=O)Nc3nccs3)=C2C#N)cc(OC)c1OC (stereo not drawn) [(1)], the EC50 [1] is reported as 477 nM and the EC50 (L929 cells) is reported as 0.197 µM.
Work on N#CC1=C(SCC(=O)Nc2nccs2)NC(=O)CC1c1ccccc1F (stereo not drawn) [(2)] yielded an EC50 [1] of 769 nM.
Work on N#CC1=C(SCC(=O)Nc2nccs2)NC(=O)CC1c1ccc(Cl)cc1 (stereo not drawn) [(3)] yielded an EC50 [1] of 823 nM.
COc1ccc(C2CC(=O)NC(SCC(=O)Nc3nccs3)=C2C#N)cc1OC (stereo not drawn) [(4)] gave an EC50 [1] of 354 nM.
For COC(=O)C1C(=O)NC(SCC(=O)Nc2nccs2)=C(C#N)C1c1ccc(Cl)cc1 (stereo not drawn) [(5)], the EC50 [1] was 25000 nM.
N#CC1=C(SCC(=O)Nc2nccs2)NC(=O)CC1c1ccccc1 (stereo not drawn) [(6)] was tested, and the “EC50 Fadd −/− Jurkat” value [1] was “Partial activity”.
For COc1ccccc1C1CC(=O)NC(SCC(=O)Nc2nccs2)=C1C#N (stereo not drawn) [(7)], the EC50 [1] was 2380 nM.
N#CC1=C(SCC(N)=O)NC(=O)CC1c1ccccc1 (stereo not drawn) [(8)] was tested, and the “EC50 Fadd −/− Jurkat” value [1] was “inactive”.
With COc1ccc(NC(=O)CSC2=C(C#N)C(c3cc(OC)c(OC)c(OC)c3)CC(=O)N2)cc1 (stereo not drawn) [(9)] the “EC50 Fadd −/− Jurkat” value [1] was “inactive”.
With COc1cc(C2CC(=O)NC(SCC(=O)Nc3ccccc3)=C2C#N)cc(OC)c1OC (stereo not drawn) [(10)] the “EC50 Fadd −/− Jurkat” value [1] was “inactive”.
For COc1cc(C2CC(=O)NC(SCC(=O)Nc3ccc(F)cc3)=C2C#N)cc(OC)c1OC (stereo not drawn) [(11)], the “EC50 Fadd −/− Jurkat” value [1] was “inactive”.
In the case of COc1cc(C2CC(=O)NC(SCC(=O)Nc3c(C)cc(C)cc3C)=C2C#N)cc(OC)c1OC (stereo not drawn) [(12)], the “EC50 Fadd −/− Jurkat” value [1] is reported as “inactive”.
For O=C(Nc1ccccc1)N1N=CCC1c1ccccc1 (stereo not drawn) [(17)], the “EC50 Fadd −/− Jurkat” value [1] was “inconclusive”.
With CCN1CCN(CC(=O)N2N=CCC2c2ccccc2)CC1 (stereo not drawn) [(18)] the EC50 [1] was 410 nM.
Cc1ccc(C(=O)C2=NNCC2c2ccccc2)cc1 (stereo not drawn) [(19)] gave an EC50 [1] of 369 nM.
With O=C(CSc1ccc(Cl)cc1)N1N=CCC1c1ccccc1 (stereo not drawn) [(20)] the EC50 [1] was 3210 nM.
Molecule O=C(CSc1nc2ccccc2s1)N1N=CCC1c1ccccc1 (stereo not drawn) [(21)] has an EC50 [1] of 1560 nM.
With Clc1ccc(-c2cc[nH]n2)cc1 [(22)] the “EC50 Fadd −/− Jurkat” value [1] was “Inactive”.
CCOC(=O)C1NN=C(C(=O)c2ccccc2)C1c1ccccc1 (stereo not drawn) [(23)] was tested, and the “EC50 Fadd −/− Jurkat” value [1] was “Inactive”.
With CCOC(=O)C1=NNC(C(=O)c2ccccc2)C1c1ccc(Cl)cc1 (stereo not drawn) [(24)] the “EC50 Fadd −/− Jurkat” value [1] was “Inactive”.
For Cn1ccnc1SCC(=O)N1N=CCC1c1ccccc1 (stereo not drawn) [(25)], the “EC50 Fadd −/− Jurkat” value [1] was “Inactive”.
In the case of Cc1ccc2nc(SCC(=O)N3N=CCC3c3ccccc3)nc(C)c2c1 (stereo not drawn) [(26)], the “EC50 Fadd −/− Jurkat” value [1] is reported as “Inactive”.
C#CC1(O)c2ccccc2C=Cc2ccccc21 [(28)] gave an EC50 [1] of 2980 nM.
C#CC(O)(c1ccccc1)c1ccccc1 [(29)] showed an EC50 [1] of 31800 nM.
CCC1(O)c2ccccc2CCc2ccccc21 [(30)] showed an EC50 [1] of 5830 nM.
C=CC1(O)c2ccccc2CCc2ccccc21 [(31)] gave an EC50 [1] of 2950 nM.
For C#CC1(O)c2ccccc2CCc2ccc(F)cc21 (stereo not drawn) [(32)], the EC50 [1] was 2000 nM.
C#CC1(O)c2ccccc2CCc2c(F)cccc21 (stereo not drawn) [(33)] showed an EC50 [1] of 4790 nM.
For C#CC1(O)CCCCCC1 [(34)], the “EC50 Fadd −/− Jurkat” value [1] was “Inactive”.
In the case of C#CC1(O)c2ccccc2-c2ccccc21 [(35)], the “EC50 Fadd −/− Jurkat” value [1] is reported as “Inactive”.
For C#CC1(OC)c2ccccc2CCc2ccccc21 [(36)], the “EC50 Fadd −/− Jurkat” value [1] was “Inactive”.
C=C(Br)C1(Br)c2ccccc2CCc2ccccc21 [(37)] was tested, and the “EC50 Fadd −/− Jurkat” value [1] was “Inactive”.
With C=C(Cl)C1(Cl)c2ccccc2CCc2ccccc21 [(38)] the “EC50 Fadd −/− Jurkat” value [1] was “Inactive”.
With OC1(C#CBr)c2ccccc2CCc2ccccc21 [(39)] the “EC50 Fadd −/− Jurkat” value [1] was “Inactive”.
For CC#CC1(O)c2ccccc2CCc2ccccc21 [(40)], the “EC50 Fadd −/− Jurkat” value [1] was “Inactive”.
C#CC1(O)c2ccccc2CCc2c1ccc1ccccc21 (stereo not drawn) [(41)] was tested, and the “EC50 Fadd −/− Jurkat” value [1] was “Inactive”.
For C#CC1(O)c2cc(I)ccc2CCc2ccc(I)cc21 [(42)], the “EC50 Fadd −/− Jurkat” value [1] was “Inactive”.
In the case of C#CC1(O)c2cc([N+](=O)[O-])ccc2CCc2ccc([N+](=O)[O-])cc21 [(43)], the “EC50 Fadd −/− Jurkat” value [1] is reported as “Inactive”.
With C#CC1(O)c2ccccc2CCc2ccc(Br)cc21 (stereo not drawn) [(44)] the “EC50 Fadd −/− Jurkat” value [1] was “Inactive”.
With C#CC1(O)c2ccccc2CCc2ccc(Cl)cc21 (stereo not drawn) [(45)] the “EC50 Fadd −/− Jurkat” value [1] was “Inactive”.
In the case of C#CC1(O)c2ccccc2CCc2ccc(C)cc21 (stereo not drawn) [(46)], the “EC50 Fadd −/− Jurkat” value [1] is reported as “Inactive”.
For CC(C)(O)C#CC1(O)c2ccccc2CCc2ccccc21 [(47)], the “EC50 Fadd −/− Jurkat” value [1] was “Inactive”.
Cc1sc2ncn(Cc3ccccc3)c(=O)c2c1C [(49)] showed an EC50 [1] of 3800 nM.
In the case of O=c1c2c3c(sc2ncn1Cc1cccc2cccnc12)CCC3 [(50)], the EC50 [1] is reported as > 30000 nM.
For COc1ccc(F)cc1Cn1cnc2sc3c(c2c1=O)CCC3 [(51)], the EC50 [1] was 10900 nM.
COc1ccc(Cn2cnc3sc4c(c3c2=O)CCC4)cc1F [(52)] was tested, and the EC50 [1] was 3050 nM.
O=c1c2c3c(sc2ncn1Cc1cccc2ccccc12)CCC3 [(53)] was tested, and the EC50 [1] was > 30000 nM.
N#Cc1ccc(Cn2cnc3sc4c(c3c2=O)CCC4)cc1 [(54)] gave an EC50 [1] of 861 nM.
O=c1cc(Cn2cnc3sc4c(c3c2=O)CCC4)c2ccccc2[nH]1 [(55)] was tested, and the EC50 [1] was > 30000 nM.
With O=c1c2ccccc2ncn1Cc1ccc(Cl)cc1 [(56)] the EC50 [1] was > 30000 nM.
O=c1c2c3c(sc2ncn1Cc1c(Cl)cccc1Cl)CCC3 [(57)] showed an EC50 [1] of 936 nM.
In the case of CCSCC(=O)Nc1ccc(F)cc1 [(64)], the EC50 [1] is reported as 14100 nM and the “EC50 L929” value (L929 cells) is reported as “Inactive”.
In the case of Cc1ccc(Cn2ncc3ccccc32)cc1 [(65)], the EC50 [1] is reported as 3620 nM and the “EC50 L929” value (L929 cells) is reported as “Inactive”.
Work on Cc1ccc(CN(C)C(=O)C2CCCCC2)o1 [(66)] yielded an EC50 [1] of 2620 nM and an EC50 (L929 cells) of 47.1 µM.
In the case of CNC(Cc1ccccc1)=C1C(=O)CC(C)(C)CC1=O [(67)], the EC50 [1] is reported as 2240 nM and the EC50 (L929 cells) is reported as 10 µM.
With CNS(=O)(=O)c1cccc(C(=O)OCC(=O)N2CCCc3ccccc32)c1 [(68)] the EC50 [1] was 1630 nM and the “EC50 L929” value (L929 cells) was “Inactive”.
In the case of O=C(NCc1cccs1)C1CCCCC1 [(69)], the EC50 [1] is reported as 7720 nM and the “EC50 L929” value (L929 cells) is reported as “Inactive”.
Cc1s/c(=N\C(=O)C2=NNC(=O)CC2)[nH]c1-c1ccc(F)cc1 [(70)] was tested, and the EC50 [1] was 908 nM and the “EC50 L929” value (L929 cells) was “Inactive”.
CC(C)(C)OC(=O)Nc1ccc(-c2cc[nH]n2)cc1 [Compound (13)] was tested, and the EC50 [1] was 5380 nM and the EC50 (L929 cells) was 0.89 µM.
Molecule O=C(N1N=CCC1c1ccccc1)C12CC3CC(CC(C3)C1)C2 (stereo not drawn) [Compound (14)] has an EC50 [1] of 410 nM and an EC50 (L929 cells) of 4.2 µM.
With O=C(C1=NNCC1c1ccccc1)c1ccccc1 (stereo not drawn) [Compound (15)] the EC50 [1] was 369 nM and the EC50 (L929 cells) was 4.02 µM.
For O=C(CSc1nnnn1-c1ccccc1)N1N=CCC1c1ccccc1 (stereo not drawn) [Compound (16)], the EC50 [1] was 629 nM and the EC50 (L929 cells) was 73 µM.
For C#CC1(O)c2ccccc2CCc2ccccc21 [Compound (27)], the EC50 [1] was 3230 nM and the EC50 (L929 cells) was 0.659 µM.
With O=c1c2c3c(sc2ncn1Cc1ccccc1)CCC3 [Compound (48)] the EC50 [1] was 216 nM and the EC50 (L929 cells) was 8.66 µM.
Molecule CCN(CC)S(=O)(=O)c1ccc(C(=O)/N=c2\[nH]ccs2)cc1 [Compound (58)] has an EC50 [1] of 8960 nM and an EC50 (L929 cells) of 1.11 µM.
O=C1NC(Cc2c[nH]c3ccccc23)C(=O)N1Cc1ccc(Cl)cc1 (stereo not drawn) [Compound (59)] showed an EC50 [1] of 343 nM and an EC50 (L929 cells) of 7.46 µM.
Molecule O=C(C1COc2ccccc2O1)N1CCc2ccccc21 (stereo not drawn) [Compound (60)] has an EC50 [1] of 629 nM and an EC50 (L929 cells) of 23 µM.
In the case of O=C(COc1ccccc1)N1CCc2ccccc21 [Compound (61)], the “EC50 Fadd −/− Jurkat” value [1] is reported as “Inactive”.
c1ccc(C2CC3CC4(CCCC4)N2O3)cc1 (stereo not drawn) [Compound (62)] showed an EC50 [1] of 668 nM and an EC50 (L929 cells) of 10.1 µM.
